Biological target: T1, GmPP2C1 (Glycine max, UniProt K7LYY2)
T1 sequence (K7LYY2 1-536): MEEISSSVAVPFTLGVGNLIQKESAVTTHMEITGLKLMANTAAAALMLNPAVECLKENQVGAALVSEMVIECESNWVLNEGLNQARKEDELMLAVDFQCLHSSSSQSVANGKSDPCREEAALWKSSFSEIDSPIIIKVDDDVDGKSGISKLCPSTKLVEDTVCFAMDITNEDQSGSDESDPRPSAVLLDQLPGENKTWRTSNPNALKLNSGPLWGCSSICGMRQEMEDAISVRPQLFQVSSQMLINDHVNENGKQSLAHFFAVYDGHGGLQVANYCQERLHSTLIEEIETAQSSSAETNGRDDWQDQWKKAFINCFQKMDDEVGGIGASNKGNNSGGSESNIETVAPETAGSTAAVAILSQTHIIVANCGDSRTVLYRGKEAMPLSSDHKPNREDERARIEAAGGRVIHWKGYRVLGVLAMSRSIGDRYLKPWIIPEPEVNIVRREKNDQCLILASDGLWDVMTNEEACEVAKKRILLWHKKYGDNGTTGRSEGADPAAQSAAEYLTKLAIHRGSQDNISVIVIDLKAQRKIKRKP
Test: pNPP hydrolysis at […] nm
Type: biochemical
Conditions: 1 μM His-GmPP2C1, 50 mM pNPP, pH 7.5, 25 mM Mg(OAc)2, 2 mM MnCl2

**Q.** For `O=[N+]([O-])c1ccc(OP(=O)(O)O)cc1` [p-nitrophenyl phosphate], which “pNPP hydrolysis at 405 nm” value is on record?
**A.** GmPP2C1 phosphatase activity was measured using the colorimetric substrate p-nitrophenyl phosphate (pNPP, Sigma)

From article PMC3834219 (Plant molecular biology, 2013)
